# Tests used:
# [1] = system: CD34-positive human haematopoietic cells; test: FACS analysis of healthy CD34-positive haematopoietic cells after LSD1i and MEKi sequential treatment; type: cell-based
# From the text: We next tested whether the LSD1i->MEKi sequential treatment may be affecting healthy human haematopoietic (CD34-positive) cells. We observed an increase in the expression of differentiation markers, such as CD11b and CD14, but no effect on the proportion of CD34-positive cells as a result of treatment with LSD1i (FIG. 11, A to C).
# (§1) Umbilical cord bloods were purchased from Anthony Nolan. Mononuclear cells (MNCs) were isolated by Ficoll prior red blood cells (RBC) lysis buffer (BioLegend, catalog #420301). Cells were then stained with CD34 immunomagnetic positive selection kit (EasySep™ Human CD34 Positive Selection Kit II, StemCell technologies, catalog #17856, according to manufacturer instructions). Purity of CD34^+ cells isolated from MNCs was assessed by flow cytometry prior to long term storage in liquid nitrogen. For AML samples, patients gave informed consent for the storage and use of their blood cells for research purposes. Experiments were performed in accordance with the Local Research Ethics Committee, as previously described. Mononuclear cells from peripheral blood or bone marrow biopsies were isolated in the BCI tissue bank facility and stored in liquid nitrogen.
# For the establishment of the feeder layer, MS-5 cells were plated onto 6-well plates (for the co-culture with CD34+ cord blood cells) or 96-well plates (for the co-culture with primary AML cells) at a density of 5-10,000 cells/cm^2 (48,000 cells for each well of a 6-well plate, or 3,200 cells for each well of a 96-well plate) with IMDM medium. Cells were then incubated at 37° C. for 48 hours, or until a confluency of approximately 70% was reached, after which they were irradiated with an X-ray source at 680 cGy. Following irradiation, the growth medium was removed and replaced with complete H5100 medium, and cell were incubated at 37° C. for a further 24 hours.
# Following recovery, cord blood-derived CD34+ cells or primary AML cells were added to the plates containing the established MS-5 feeder layers. CD34+ cells were added at a density of 20,000 cells/well of a 6-well plate, whilst primary AML cells were added at 8,300 cells/well of a 96-well plate. Cells were then left to incubate at 37° C. and to recover for 4 days, after which treatments were started. […] Following treatment, CD34+ cells were harvested by collecting culture medium in FACS tubes. Adherent cells were detached by briefly incubating with trypsin-EDTA, then also added to the respective FACS tubes. Cells were centrifuged at 300×g for 8 minutes, the supernatant was removed and cells were resuspended in 1 mL PBS+2% FBS, then processed for FACS analysis as described below. For primary AML, cells were resuspended and transferred to separate 96-well plates, after which they were processed for Guava ViaCount analysis, as described below. […]
# [2] = results of clinical trials; unselected AML patient populations; cited from earlier work
# acute myeloid leukemia = settings: Smitheman et al. (2019); cited from earlier work
# primary AML cells = test: Ex-vivo sequential treatment of primary AML blasts co-cultured on MS-5 stromal feeder layer, Guava ViaCount, CDI; type: cell-based, human
# Procedure: We then examined whether, besides cell lines, LSD1i could also sensitise primary AML to kinase inhibitor treatment. We obtained CDI values from 17 AML blasts samples (6 normal, 5 complex and 6 MLL karyotypes) treated for 5 days with LSD1i followed by 3 days with either MEKi, PKC/FLT3i or DMSO control (FIGS. 2, H and I). Primary AML cells were cultured and treated in the presence of a feeder layer of bone marrow stromal cells, which, under control conditions, kept cells viable and proliferating throughout the course of the experiment.
# as §1
# Cell vials were thawed in 37° C. water bath and contents transferred to 15 mL Falcon tubes containing 4 mL of pre-warmed FBS with 40 ng/mL DNase (Sigma Aldrich D4513-1VL). Suspension was centrifuged at 300×g for 8 minutes, then supernatant was removed and cells resuspended in MyeloCult H5100 medium (Stemcell Technologies #05150) containing 1% P/S and supplemented with human IL-3 (Peprotech #200-03), human G-CSF (Peprotech #300-23) and human TPO (#300-18), each to a final concentration of 20 ng/mL. […]
# [3] = LSD1i 5 days, healthy CD34-positive cells co-cultured with MS5 (FIG. 11)
smiles,measurement,setting,value
O=C(O)c1ccc(CN2CCC(CN[C@@H]3C[C@H]3c3ccccc3)CC2)cc1 [GSK2879552],effect on normal stem/progenitor cell compartment,[1]; LSD1i 5 days then MEKi 3 days,preserved the normal stem/progenitor cell compartment
same,apoptosis (Annexin V) in healthy haematopoietic cells,"[1]; LSD1i 5 days then MEKi 3 days, mostly restricted to the more mature CD34-negative cells (FIG. 11D, 12)",increased apoptosis
same,"expression of differentiation markers, such as CD11b and CD14",[1]; [3],increase
same,proportion of CD34-positive cells,[1]; [3],no effect
same,clinical tolerability as single agent,[2],has side effects
same,differentiation and cytotoxic response in combination with all-trans retinoic acid (ATRA),acute myeloid leukemia,enhances differentiation and promotes cytotoxic response
same,number of primary AML cases primed for MEKi treatment,"primary AML cells; LSD1i 5 days then MEKi 3 days, of the 17 primary AML cases (FIG. 2H)",8
same,number of primary AML cases primed for PKC/FLT3i treatment,"primary AML cells; LSD1i 5 days then PKC/FLT3i (midostaurin) 3 days, out of the 14 tested (FIG. 2I)",5
same,proportion of AML cases in which LSD1i->MEKi sequential treatment may be particularly effective,"primary AML cells; LSD1i->MEKi sequential treatment, primary AML",about 50%
